For experiment [1], the target named is T1, NE transporter (Rattus norvegicus, UniProt Q63380).
T1 construct: from tissue; host or cells: brain membranes prepared by a cited method
Put plainly: [^3 H]Nisoxetine binding to NE transporter. The method, then: Membranes for the [^3 H]nisoxetine assay were prepared as described (Rothman, R. B., et al. Synapse 14: 34-39 (1993)).
The [^3 H]nisoxetine assay for the norepinephrine transporter (NE) was carried out as described (Rothman, et al. (1993), supra; Tejani-Butt, S. M., et al. Eur. J. Pharmacol. 191:239-243 (1990)). DA transporters were labeled with [^3 H)CFT with minor modifications of published protocols (Madras, B. K., et al. Mol. Pharmacol. 36: 518-524 (1989)). Briefly, 12×75 mm polystyrene test tubes were prefilled with 100 μl of drug, 100 μl of radiolabeled (1 nM final concentration), 50 μl of buffer. Drugs were dissolved in BB containing 1 mg/ml bovine serum albumin (BB/BSA). Radioligands were made to a final concentration in a protease inhibitor cocktail containing 1 mg/ml BSA {BB containing chymostatin (25 μg/ml), leupeptin (25 μg/ml), EDTA (100 μM), and EGTA (100 μM)}. The assay was initiated by the addition of 750 μl of membranes, prepared as described above. Brandel cell harvesters were used to filter the samples over Whatman GF/B filters, which were presoaked in wash buffer (ice-cold 10 mM TRIS-HCL, pH 7.4 containing 150 mM NaCl) containing 2% polyethylenimine. In this procedure, samples were filtered and then washed with two 4 ml aliquots of ice-cold wash buffer. Nonspecific binding was defined using 10 μM (final concentration) GBR12909. All subsequent steps were identical to those described above.
(§1) Inhibition curves were fit to the two parameter logistic equation for the best-fit estimates of the IC50 using nonlinear least squares curve fitting methods as previously described (Rothman et al. (1993), supra); Jones, S. M. and Rogawski, M. A. Mol. Neuropharmacol. 2: 303-310 (1992)).
Synaptosomal uptake and ligand binding assays were conducted as described
Preliminary experiments were conducted to determine the doserange
The data of two experiments were
pooled, and fit to the two parameter logistic equation for the bestfit

Experiment [2] deals with PCP site 2. The class given is binding, guinea pig. As to the method: Large batches of frozen membranes were prepared with minor modifications of published procedures (Rothman, et al. (1989), supra). Twenty to thirty frozen guinea pig brains with cerebellum were thawed for 15 minutes and homogenized with a Polytron in ice-cold 5 mM Tris-HCl, pH 8.0 (10 ml/brain). The homogenate was centrifuged at 37,000×g for 10 minutes, and the pellet was washed by resuspension in the same volume of buffer followed by recentrifugation. The pellets were resuspended in an equal volume of 5 mM Tris-HCl, pH 8.0, and the concentration was adjusted to 50 mM by the addition of 1M Tris-HCl, pH 8.0. The homogenate was centrifuged for 10 min at 37,000×g. The pellets were then washed three times by resuspension and centrifugation using 50 mM Tris-HCl, pH 8.0. The final pellets were resuspended in the Tris-HCl buffer (0.5 ml/brain), pooled and 1 ml aliquots were distributed to microfuge tubes, which were stored at -70° for assay.
The [^3 H]TCP binding assay for PCP site 2 was conducted with minor modifications of published protocols (Rothman, et al. (1989), supra). Briefly, 12×75 mm polystyrene test tubes were prefilled with 100 μl of [^3 H]TCP (2 nM final concentration) in a protease inhibitor cocktail (PIC) containing 5000 nM (+) -MK801, 100 μl of distilled H2 O or drug (in distilled H2 0), 50 μl of buffer (5 mM Tris-HCL, pH 8.0), and 750 μl of membrane (0.5-1.0 mg/ml protein, in 5 mM Tris-HCl, pH 8.0). […] The protease inhibitor cocktail was composed of 25 μg/ml leupeptin, 25 μg/ml chymostatin, 0.1 mM EDTA, and 0.1 mM ethylene glycol-bis-(beta-aminoethyl-ether)-N,N,N',N'-tetraacetic acid (EGTA). The incubation time was 18-24 hours at 4° C. (steady state) in a final volume of 1 ml. Triplicate samples were filtered with an MR24 Brandel Cell Harvester and washed with two 5 ml aliquots of ice cold buffer. Whatman GF/B filters were presoaked in buffer containing 2% polyethylenimine. The tritium retained on the filters was measured using a Taurus scintillation counter at 44% efficiency after an overnight extraction into ICN Cytoscint cocktail. Non specific binding was determined using 10 μM of TCP. Protein was determine using the method of Lowry, et al., supra.
as §1
^a The binding assays for PCP (site 2) and PCP (site 1) were conducte
as previously reported (Rothman, R. B., et al., In: Multiple Sigma and PC
Receptor Ligands: Mechanisms for Neuromodulation and Protection 307-330
(Domino, E. F. and Kamenka, J. M., eds., 1992) using [^3 H]TCP in the
presence of (+)MK801 for site 2 and [^3 HMK801 for site 1 except that
the [^3 H]TCP assays were terminated after 18-24 hours of incubation

[3] abbreviates: Table 2, nM ±, read-out: [^3 H]Nisoxetine Binding IC50.
The mark [4] stands for this setting: Table 1, [^3 H]TCP in presence of (+)MK801, 18-24 hours at 4° C.

“Also recorded” adds a separate entry of the source. Where two headings read alike, the source gives them in different places.

The text below walks through data of patent publication US5747503A, “Selective inhibitors of biogenic amine transporters” (priority 1996, dated 1998).

In general, IC50 refers to the concentration needed to halve the response being measured.

T1 sequence (Q63380 1-617): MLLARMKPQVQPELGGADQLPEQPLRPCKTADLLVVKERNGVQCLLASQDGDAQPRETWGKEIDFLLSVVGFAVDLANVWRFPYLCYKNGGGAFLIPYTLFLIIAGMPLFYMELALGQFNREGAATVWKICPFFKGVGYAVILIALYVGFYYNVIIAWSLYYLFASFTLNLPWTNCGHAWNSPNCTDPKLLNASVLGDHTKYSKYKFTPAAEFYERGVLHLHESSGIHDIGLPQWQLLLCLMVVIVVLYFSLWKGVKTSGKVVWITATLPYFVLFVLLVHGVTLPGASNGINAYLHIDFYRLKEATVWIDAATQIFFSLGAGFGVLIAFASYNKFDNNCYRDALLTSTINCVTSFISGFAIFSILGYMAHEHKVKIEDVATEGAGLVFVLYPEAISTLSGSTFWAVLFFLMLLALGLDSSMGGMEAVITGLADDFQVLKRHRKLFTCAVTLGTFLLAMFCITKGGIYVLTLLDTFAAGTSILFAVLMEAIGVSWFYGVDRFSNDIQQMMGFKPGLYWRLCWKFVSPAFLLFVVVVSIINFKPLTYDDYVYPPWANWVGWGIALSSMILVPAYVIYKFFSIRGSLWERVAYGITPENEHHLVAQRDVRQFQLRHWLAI

`CN1[C@H](Cc2ccccc2)C[C@H]2Cc3ccccc3[C@H]21` (relative stereo) [RTI-4793-14, (2RS, 3aSR, 8aRS)-1,2,3a,8,8a-Hexahydro-2-benzyl-1-methyl-indeno[1,2-b]pyrrole]: in experiment [1], the “[^3 H]nisoxetine binding / NE transporter affinity in words” value is “moderate potency”. Also, the IC50 in experiment [1] (setting [3]) was found to be 609 ± 48 nM; in experiment [2] (setting [4]), 37.9 nM; in experiment [2] (Table 2, nM ± SD), 37.9 ± 5.7 nM; in experiment [2] (Table 3, guinea pig membranes) it was 37.9 ± 5.7 nM. Moreover, the “affinity/selectivity for PCP site 2 in words” value in experiment [2] was “high affinity and selectivity; also recorded: highest affinity for PCP site 2 of any of the drugs tested”; in experiment [2] (listed as 3b) it was “potent and selective ligand for site 2”.
Regarding `C[C@]12N[C@H](Cc3ccccc31)c1ccccc12` [(+)-MK801], the “[^3 H]nisoxetine binding / NE transporter affinity in words” value in experiment [1] is “negligible affinity”. Besides, the 50% inhibitory concentration (IC50) in experiment [1] (setting [3]) was 6580 ± 860 nM; in experiment [2] (setting [4]), 15900 nM; in experiment [2] (Table 2, nM ± SD), over 10000 nM.
Regarding `CNC1CC(c2ccc(Cl)c(Cl)c2)c2ccccc21` (stereo not drawn) [Indatraline], the IC50 in experiment [2] came to 2500 nM; in experiment [2] (Table 2, nM ± SD) it was 2530 ± 485 nM.
Consider `c1ccc(C2(N3CCCCC3)CCCCC2)cc1` [PCP, phencyclidine], for which the half-inhibitory concentration (IC50) was found to be 16630 ± 98 nM in experiment [1]; 92.4 ± 7 nM in experiment [2] (setting [4]); 92.4 ± 7 nM in experiment [2] (Table 2, nM ± SD). Besides, the “[^3 H]nisoxetine binding / NE transporter affinity in words” value in experiment [1] is listed as “very low affinity”. Also, in experiment [2], the “affinity/selectivity for PCP site 2 in words” value is “approximately the same potency at both sites; also recorded: moderate and about equal affinity for PCP site 1 and PCP site 2”.
